Measured values reported in patent US9783510B2, “Small molecule mediated transcriptional induction of E-cadherin” (Vanderbilt University, priority 2014, dated 2017).

Key:
[1] = test system: E-cadherin expression in H520 cells; experiment: E-cadherin expression, in-cell Western (ICW), H520 cells; assay type: cell-based; details: Homo sapiens, NCI-H520
Procedure: SW620 and H520 cells (5×10^4/100 μL) were seeded in a 96-well plate prior to treatment. Cells were treated with 10 μM concentration of synthesized compound in quadruplicate for 24 hours in RPMI 1640 supplemented medium and 100 μg/mL penicillin-streptomycin. The cells were then fixed with 100% methanol for 20 minutes at 4° C. The wells were then washed 2 times with PBS, permeabilized in 2% bovine serum albumin (BSA) and 0.2% TritonX-100 in PBS for 30 minutes at room temperature with gentle agitation, and blocked in LI-COR blocking buffer for 30 minutes at room temperature with gentle agitation. The cells were then incubated with the following primary antibodies: anti-E-Cadherin (1:500) and anti-α-Tubulin (1:1000) diluted in blocking buffer (1:1 dilution in PBS) for 2 hours at room temperature with gentle agitation. The cells were washed 4 times in PBS-T for 5 minutes each, and then incubated with the following secondary antibodies conjugated to a fluorescent entity: IRDye 800-conjugated goat anti-rabbit IgG (1:1000) and IRDye-700-conjugated goat anti-mouse IgG (1:2000) in blocking buffer (1:1 dilution in PBS) with gentle agitation for 1 h at room temperature. The cells were washed 4 times in PBS-T for 5 minutes each followed by a single wash with PBS. All liquid was removed from the wells and the plates were visualized and analyzed on the Odyssey IR imaging system (LI-COR Biosciences).
The assay was further optimized in the following manner. The cells were washed 2 times with PBS, fixed in 100% methanol at room temperature for 15 minutes, and again washed 2 times with PBS. The cells were then incubated with the following primary antibodies: anti-E-Cadherin (1:200) and anti-α-Tubulin (1:2000) diluted in ice cold 2% bovine serum albumin (BSA) and 0.2% TritonX-100 in PBS for 1 hour at room temperature with gentle agitation. The cells were washed 2 times in PBS and then incubated with the following secondary antibodies conjugated to a fluorescent entity: Licor 800-conjugated goat anti-rabbit IgG (1:2000) and IRDye-700-conjugated goat anti-mouse IgG (1:2000) in ice cold 2% BSA and 0.2% TritonX-100 in PBS with gentle agitation for 45 minutes at room temperature. The wells were washed 2 times in PBS, dried, and analyzed as previously mentioned.
Changes in expression level of E-cadherin in response to 10 μM compound in H520 cells was determined in a cell-based functional assay as described above, and the data are shown in Table IV. The compound number corresponds to the compound numbers used in Table II.
EC50 of inducement of E-cadherin expression in H520 cells was determined in a cell-based functional assay as described above, and the data are shown in Table VI. The compound number corresponds to the compound numbers used in Table II.

[2] = Intrinsic clearance in vitro, mouse; assay type: in vitro ADME
Procedure: The potency and efficacy of Compound 13 was evaluated in vivo. For these studies, the pharmacokinetics of Compound 13 were first evaluated in vitro and in vivo (FIG. 14).

[3] = test system: E-cadherin expression in SW620 cells; experiment: E-cadherin expression, in-cell Western (ICW), SW620 cells; assay type: cell-based; details: Homo sapiens
Procedure, shortened: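 SW620 cells were treated with compound for 24 h in RPMI 1640 (single-point at 10 μM; EC50 also determined), in quadruplicate. After methanol fixation, in-cell Western with anti-E-cadherin and anti-α-tubulin primaries and IRDye 800/700 secondaries. Read on an Odyssey IR imager.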

[4] = test system: human E-cadherin promoter; experiment: E-cadherin promoter luciferase reporter assay in SW620inv cells; assay type: cell-based; details: 10 μM, 24 hours
Procedure: The 1.4 kbp E-cadherin promoter plasmid (E1) and deletion plasmids E2-E8 were a gift from Dr. Eric Fearon at The University of Michigan (Liu, Y. N., et al. (2005) Onocogene 24, 8277-8290). All plasmid constructs were sequenced at the Vanderbilt University Sequencing Core to confirm the E-cadherin promoter fragments using the PCR primers listed in Table I and herein below. Luciferase assays were performed as previously described (Freeman, T. J., et al. (2012) Gastroenterology 142, 562-572).
Compound 13 (259Y) induces>20-fold increases in reporter activation driven by the 1130 bp promoter region in an assay in which an exogenous firefly luciferase gene is driven by defined regions of the human E-cadherin promoter. This region includes consensus binding sequences for several known transcription factors, including AML1, P300, Snail and SP1 (Liu, Y. N., et al. (2005) Oncogene 24, 8277-8290). […]
Referring to FIG. 5, a diagram of the 8 E-cadherin promoter reporter plasmids (full length and truncations) utilized to determine promoter elements critical for promoter activity is shown. […] Fold change is Log2^−ΔΔCp of the normalized fluorescence signal relative to the mean of the DMSO treated group. Statistical significance was calculated using a two-way ANOVA (Holm-Sidak method): ****=p<0.00005, ***=p<0.0005, **=p<0.005, *=p<0.05. […]

EC50 ([1]; inducement of E-cadherin expression in H520 cells): 1000 nM
intrinsic clearance [2]: high
EC50 ([3]; SW-620, inducement of E-cadherin expression in SW620 cells): 4.1 µM
SMILES: O=C(NCCCNC(=O)c1cccnc1O)c1cc(-c2ccccc2)on1 [Compound 13, N-(3-(2-hydroxynicotinamido)propyl)-5-phenylisoxazole-3-carboxamide]
fold induction at 10 µM ([1]; change in expression level of E-cadherin in response to 10 μM compound, 24 hours, H520 cells): 5.54
fold induction at 10 µM ([3]; SW-620, 24 h, change in expression level of E-cadherin in response to 10 μM compound, 24 hours, SW620 cells): 5.23
reporter activation ([4]; 1130 bp promoter region): > 20 fold
reporter activation above control after serial deletion of distal promoter regions ([4]; deletion incl. −492 bp to −330 bp): > 10 ×
